The target in test [1] is T1, Human PDGFRα, cytoplasmic domain (GST-PDGFRα) (Homo sapiens, UniProt P16234).
T1 construct: made in house
Kind of test: Human PDGFRα biochemical inhibition assay (off-chip Mobility Shift Assay).

Test [2] deals with T2, Human PDGFRβ, cytoplasmic domain (GST-PDGFRβ) (Homo sapiens, UniProt P09619).
T2 construct: made in house
Kind of test: Human PDGFRβ biochemical inhibition assay (off-chip Mobility Shift Assay). In a few lines: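 GST-tagged cytoplasmic domain (aa 557-1106) from baculovirus was incubated 1 h at room temperature with compound, CSKtide, ATP at Km and Mg²⁺ in HEPES buffer, pH 7.5. Phosphorylated and unphosphorylated peptide were separated by off-chip mobility shift, and the product ratio P/(P+S) gave percent inhibition.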

Some results are limits rather than exact numbers.

T1 sequence (P16234 550-1089 T674I): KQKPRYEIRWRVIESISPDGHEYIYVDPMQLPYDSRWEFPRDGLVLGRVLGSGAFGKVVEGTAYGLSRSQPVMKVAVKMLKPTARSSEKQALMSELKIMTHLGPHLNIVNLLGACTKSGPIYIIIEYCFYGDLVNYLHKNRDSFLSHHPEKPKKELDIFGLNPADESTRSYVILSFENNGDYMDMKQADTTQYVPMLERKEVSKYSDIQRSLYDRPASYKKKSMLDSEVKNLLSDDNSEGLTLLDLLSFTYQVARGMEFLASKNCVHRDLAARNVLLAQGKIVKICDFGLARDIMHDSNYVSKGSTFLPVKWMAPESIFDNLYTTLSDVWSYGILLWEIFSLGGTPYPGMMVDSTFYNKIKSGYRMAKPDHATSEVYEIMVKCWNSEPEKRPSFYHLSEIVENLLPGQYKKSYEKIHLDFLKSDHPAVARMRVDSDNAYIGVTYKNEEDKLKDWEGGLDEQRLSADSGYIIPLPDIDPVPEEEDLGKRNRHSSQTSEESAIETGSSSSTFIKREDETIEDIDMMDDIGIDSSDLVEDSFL
T2 sequence (P09619 with tags, fused parts or gaps): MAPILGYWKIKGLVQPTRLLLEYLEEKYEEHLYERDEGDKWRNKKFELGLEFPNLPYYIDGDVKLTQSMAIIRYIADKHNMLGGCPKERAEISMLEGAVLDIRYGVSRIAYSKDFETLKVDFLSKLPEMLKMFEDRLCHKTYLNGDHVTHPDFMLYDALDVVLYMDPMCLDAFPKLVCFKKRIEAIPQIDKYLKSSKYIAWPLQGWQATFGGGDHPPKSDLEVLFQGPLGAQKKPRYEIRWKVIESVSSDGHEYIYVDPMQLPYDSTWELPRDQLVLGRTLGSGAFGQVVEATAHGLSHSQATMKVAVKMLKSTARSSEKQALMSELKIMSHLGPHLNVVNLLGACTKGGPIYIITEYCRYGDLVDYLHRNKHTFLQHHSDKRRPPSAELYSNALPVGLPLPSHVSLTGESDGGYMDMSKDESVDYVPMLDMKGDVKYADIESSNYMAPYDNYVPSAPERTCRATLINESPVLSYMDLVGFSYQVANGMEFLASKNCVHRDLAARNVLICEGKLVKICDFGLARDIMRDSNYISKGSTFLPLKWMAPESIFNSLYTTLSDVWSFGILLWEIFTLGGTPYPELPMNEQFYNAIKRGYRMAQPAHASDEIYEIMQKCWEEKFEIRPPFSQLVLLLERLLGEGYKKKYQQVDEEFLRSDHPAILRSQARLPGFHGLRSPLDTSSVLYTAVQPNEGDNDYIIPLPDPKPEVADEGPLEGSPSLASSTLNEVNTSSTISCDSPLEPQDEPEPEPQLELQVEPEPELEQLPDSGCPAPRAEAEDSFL

As to `CC[C@H](Nc1cnc2cn(CC)nc2n1)c1cccc(NC(=O)c2cncc(C)c2)c1` [Compound 408, (S)-N-(3-(1-((2-ethyl-2H-pyrazolo[3,4-b]pyrazin-6-yl)amino)propyl)phenyl)-5-methylnicotinamide], the results for the IC50 in test [1] and in test [2] were 300 to 1000 nM and no less than 1000 nM, respectively.

As to `CCn1cc2ncc(N[C@@H](C)c3cccc(NC(=O)c4cnc(C(F)(F)F)c(C)c4)c3)nc2n1` [Compound 288, (S)-N-(3-(1-((2-ethyl-2H-pyrazolo[3,4-b]pyrazin-6-yl)amino)ethyl)phenyl)-5-methyl-6-(trifluoromethyl)nicotinamide], the IC50 in test [1] and in test [2] was less than 300 nM each time.

`CCn1cc2ncc(N[C@@H](C)c3cccc(NC(=O)c4cnc5ccccc5c4)c3)nc2n1` [Compound 57, (S)-N-(3-(1-((2-ethyl-2H-pyrazolo[3,4-b]pyrazin-6-yl)amino)ethyl)phenyl)quinoline-3-carboxamide]: the half-inhibitory concentration (IC50) in test [1] and in test [2] was less than 300 nM each time.

Turning to `CCn1cc2ncc(N[C@@H](C)c3cc(NC(=O)Cc4cc(C)c(Cl)cn4)ccc3C)nc2n1` [Compound 696, (S)-2-(5-chloro-4-methylpyridin-2-yl)-N-(3-(1-((2-ethyl-2H-pyrazolo[3,4-b]pyrazin-6-yl)amino)ethyl)-4-methylphenyl)acetamide], the IC50 in test [1] and in test [2] was less than 300 nM throughout.

Consider `C[C@H](Nc1cnc2cnn(C)c2n1)c1cccc(NC(=O)c2ccc(C(F)F)s2)c1` [Compound 134, (S)-5-(difluoromethyl)-N-(3-(1-((1-methyl-1H-pyrazolo[3,4-b]pyrazin-6-yl)amino)ethyl)phenyl)thiophene-2-carboxamide], for which the IC50 in test [1] and in test [2] was less than 300 nM in each case.

Turning to `Cc1cncc(C(=O)Nc2cc(F)cc([C@H](C)Nc3cnc4cnn(C)c4n3)c2)c1` [Compound 171, (S)-N-(3-fluoro-5-(1-((1-methyl-1H-pyrazolo[3,4-b]pyrazin-6-yl)amino)ethyl)phenyl)-5-methylnicotinamide], the IC50 in test [1] and in test [2] was less than 300 nM in each case.

As for `CCn1cc2ncc(N[C@@H](C)c3cccc(NC(=O)Cc4ccc(C5CC5)cn4)c3)nc2n1` [Compound 682, (S)-2-(5-cyclopropylpyridin-2-yl)-N-(3-(1-((2-ethyl-2H-pyrazolo[3,4-b]pyrazin-6-yl)amino)ethyl)phenyl)acetamide], the results for the half-inhibitory concentration (IC50) in test [1] and in test [2] were 300 to 1000 nM and no less than 1000 nM, respectively.

For `CCn1cc2ncc(N[C@@H](C)c3cc(NC(=O)Cc4cncc(Cl)c4)ccc3C)nc2n1` [Compound 673, (S)-2-(5-chloropyridin-3-yl)-N-(3-(1-((2-ethyl-2H-pyrazolo[3,4-b]pyrazin-6-yl)amino)ethyl)-4-methylphenyl)acetamide], the IC50 in test [1] and in test [2] was less than 300 nM in each case.

As for `CCn1cc2ncc(N[C@@H](C)c3cc(NC(=O)Cc4ccc(C(C)(C)F)cn4)ccc3C)nc2n1` [Compound 690, (S)-N-(3-(1-((2-ethyl-2H-pyrazolo[3,4-b]pyrazin-6-yl)amino)ethyl)-4-methylphenyl)-2-(5-(2-fluoropropan-2-yl)pyridin-2-yl)acetamide], the IC50 (as a rule, the point on the concentration scale where inhibition reaches its midpoint) in test [1] is 300 to 1000 nM; in test [2], no less than 1000 nM.

For the compound `CCn1cc2ncc(N[C@@H](C)c3cccc(NC(=O)c4cnc(NC)c(C)c4)c3)nc2n1` [Compound 380, (S)-N-(3-(1-((2-ethyl-2H-pyrazolo[3,4-b]pyrazin-6-yl)amino)ethyl)phenyl)-5-methyl-6-(methylamino)nicotinamide], the IC50 in test [1] was less than 300 nM; in test [2] it was 300 to 1000 nM.

Regarding `CCn1cc2ncc(N[C@@H](C)c3cccc(NC(=O)c4ccc(N5CCN(C)CC5)c(Cl)c4)c3)nc2n1` [Compound 361, (S)-3-chloro-N-(3-(1-((2-ethyl-2H-pyrazolo[3,4-b]pyrazin-6-yl)amino)ethyl)phenyl)-4-(4-methylpiperazin-1-yl)benzamide], the IC50 in test [1] is less than 300 nM; in test [2], 300 to 1000 nM.

`Cc1n[nH]c2ncc(N[C@@H](C)c3cccc(NC(=O)c4cncc(C(F)F)c4)c3)nc12` [Compound 532, (S)-5-(difluoromethyl)-N-(3-(1-((3-methyl-1H-pyrazolo[3,4-b]pyrazin-5-yl)amino)ethyl)phenyl)nicotinamide]: the IC50 in test [1] and in test [2] was less than 300 nM each time.

Take `CCn1cc2ncc(N[C@@H](C)c3cc(NC(=O)Cc4ccc(C)cn4)ccc3F)nc2n1` [Compound 689, (S)-N-(3-(1-((2-ethyl-2H-pyrazolo[3,4-b]pyrazin-6-yl)amino)ethyl)-4-fluorophenyl)-2-(5-methylpyridin-2-yl) acetamide]: the IC50 was less than 300 nM in test [1] and no less than 1000 nM in test [2].

On to `COc1ccc(C(=O)Nc2cccc([C@H](C)Nc3cnc4cnn(C)c4n3)c2)cc1OC` [Compound 203, (S)-3,4-dimethoxy-N-(3-(1-((1-methyl-1H-pyrazolo[3,4-b]pyrazin-6-yl)amino)ethyl)phenyl)benzamide], for which the IC50 in test [1] and in test [2] was less than 300 nM each time.

With `CCn1cc2ncc(N[C@@H](C)c3cc(NC(=O)Cc4cnc(C)c(F)c4)ccc3C)nc2n1` [Compound 707, (S)-N-(3-(1-((2-ethyl-2H-pyrazolo[3,4-b]pyrazin-6-yl)amino)ethyl)-4-methylphenyl)-2-(5-fluoro-6-methylpyridin-3-yl)acetamide], the values for the IC50 in test [1] and in test [2] were less than 300 nM and 300 to 1000 nM, respectively.

Take `CCn1cc2ncc(N[C@@H](C)c3cccc(NC(=O)c4ccc(Cl)s4)c3)nc2n1` [Compound 293, (S)-5-chloro-N-(3-(1-((2-ethyl-2H-pyrazolo[3,4-b]pyrazin-6-yl)amino)ethyl)phenyl)thiophene-2-carboxamide]: the 50% inhibitory concentration (IC50) in test [1] and in test [2] was less than 300 nM in each case.

Turning to `CCn1cc2ncc(N[C@@H](C)c3cc(NC(=O)c4cnc(C(F)(F)F)s4)ccc3F)nc2n1` [Compound 308, (S)-N-(3-(1-((2-ethyl-2H-pyrazolo[3,4-b]pyrazin-6-yl)amino)ethyl)-4-fluorophenyl)-2-(trifluoromethyl)thiazole-5-carboxamide], the IC50 in test [1] and in test [2] was less than 300 nM throughout.

`CCn1cc2ncc(N[C@@H](C)c3cccc(NC(=O)c4cnc(N5CCCC5)c(C)c4)c3)nc2n1` [Compound 323, (S)-N-(3-(1-((2-ethyl-2H-pyrazolo[3,4-b]pyrazin-6-yl)amino)ethyl)phenyl)-5-methyl-6-(pyrrolidin-1-yl)nicotinamide]: the IC50 in test [1] and in test [2] was less than 300 nM throughout.

On to `CCn1cc2ncc(N[C@@H](C)c3cccc(NC(=O)c4ccc(C=O)c(C)c4)c3)nc2n1` [Compound 401, (S)-N-(3-(1-((2-ethyl-2H-pyrazolo[3,4-b]pyrazin-6-yl)amino)ethyl)phenyl)-4-formyl-3-methylbenzamide], for which the IC50 in test [1] and in test [2] was less than 300 nM in each case.

With `CCn1cc2ncc(N[C@@H](C)c3cc(NC(=O)c4cncc(C)c4)ccc3C)cc2n1` [Compound 501, (S)-N-(3-(1-((2-ethyl-2H-pyrazolo[4,3-b]pyridin-6-yl)amino)ethyl)-4-methylphenyl)-5-methylnicotinamide], the concentration for half-maximal inhibition (IC50) in test [1] and in test [2] was less than 300 nM throughout.

Take `CCn1cc2ncc(N[C@@H](C)c3cccc(NC(=O)c4ccc(C(F)(F)F)c(Cl)c4)c3)nc2n1` [Compound 438, (S)-3-chloro-N-(3-(1-((2-ethyl-2H-pyrazolo[3,4-b]pyrazin-6-yl)amino)ethyl)phenyl)-4-(trifluoromethyl)benzamide]: the IC50 in test [1] and in test [2] was less than 300 nM in each case.

For `CCn1cc2ncc(N[C@@H](C)c3cccc(NC(=O)c4ccc(C(F)(F)F)nc4)c3)nc2n1` [Compound 284, (S)-N-(3-(1-((2-ethyl-2H-pyrazolo[3,4-b]pyrazin-6-yl)amino)ethyl)phenyl)-6-(trifluoromethyl)nicotinamide], the IC50 in test [1] and in test [2] was 300 to 1000 nM each time.

Turning to `CCn1cc2ncc(N[C@@H](C)c3cccc(NC(=O)c4ccc(CN5CCOCC5)c(C)c4)c3)nc2n1` [Compound 403, (S)-N-(3-(1-((2-ethyl-2H-pyrazolo[3,4-b]pyrazin-6-yl)amino)ethyl)phenyl)-3-methyl-4-(morpholinomethyl) benzamide], the IC50 in test [1] and in test [2] was less than 300 nM throughout.

Regarding `Cc1c[nH]c2ncc(N[C@@H](C)c3cccc(NC(=O)c4cc(C(F)(F)F)n(C)n4)c3)nc12` [Compound 567, (S)-1-methyl-N-(3-(1-((7-methyl-5H-pyrrolo[2,3-b]pyrazin-2-yl)amino)ethyl)phenyl)-5-(trifluoromethyl)-1H-pyrazole-3-carboxamide], the IC50 in test [1] was less than 300 nM; in test [2] it was 300 to 1000 nM.

Take `COCCn1ccc2ncc(N[C@@H](C)c3cccc(NC(=O)c4cncc(C)c4)c3)nc21` [Compound 84, (S)-N-(3-(1-((5-(2-methoxyethyl)-5H-pyrrolo [2,3-b]pyrazin-3-yl)amino)ethyl)phenyl)-5-methylnicotinamide]: the IC50 is less than 300 nM in test [1] and 300 to 1000 nM in test [2].

Turning to `CCNc1ncc(C(=O)Nc2cccc([C@H](C)Nc3cnc4cn(CC)nc4n3)c2)cc1Cl` [Compound 420, (S)-5-chloro-N-(3-(1-((2-ethyl-2H-pyrazolo[3,4-b]pyrazin-6-yl)amino)ethyl)phenyl)-6-(ethylamino)nicotinamide], the IC50 in test [1] and in test [2] was less than 300 nM throughout.

As for `CCn1cc2ncc(N[C@@H](C)c3cccc(NC(=O)Cc4ccccn4)c3)nc2n1` [Compound 645, (S)-N-(3-(1-((2-ethyl-2H-pyrazolo[3,4-b]pyrazin-6-yl)amino)ethyl)phenyl)-2-(pyridin-2-yl)acetamide], the values for the IC50 in test [1] and in test [2] were 300 to 1000 nM and no less than 1000 nM, respectively.

For `CCc1cc2ncc(N[C@@H](C)c3cc(NC(=O)c4ccc(C(F)(F)F)nc4)ccc3F)nc2s1` [Compound 620, (S)-N-(3-(1-((6-ethylthieno[2,3-b]pyrazin-3-yl)amino)ethyl)-4-fluorophenyl)-6-(trifluoromethyl)nicotinamide], the IC50 in test [1] and in test [2] was less than 300 nM each time.
